Columns and labels:
A549 = assay: Cytotoxicity against human A549 cells assessed as inhibition of cell growth measured after 48 hrs by Hoechst 33258 staining based fluorescence assay; type: functional; conditions: A549, 48 h
[1] = Cytotoxicity against human WS1 cells assessed as inhibition of cell growth measured after 48 hrs by Hoechst 33258 staining based fluorescence assay; type: toxicity
DLD-1 = assay: Cytotoxicity against human DLD-1 cells assessed as inhibition of cell growth measured after 48 hrs by Hoechst 33258 staining based fluorescence assay; type: functional; conditions: DLD-1, 48 h

Row | Compound | IC50 (A549) [µM] | IC50 at 48 h [1] [µM] | IC50 (DLD-1) [µM]
1 | C=C(C)[C@@H]1CC[C@]2(CO[C@@H]3O[C@@H](C)[C@H](O)[C@@H](O)[C@H]3O)CC[C@]3(C)[C@H](CC[C@@H]4[C@@]5(C)CC[C@H](O[C@@H]6O[C@@H](C)[C@H](O)[C@@H](O)[C@H]6O)C(C)(C)[C@@H]5CC[C@]43C)[C@@H]12 | 1.07 | 1.42 | –
2 | C[C@H]1[C@H](C)CC[C@]2(CO[C@H]3OC[C@H](O)[C@H](O)[C@H]3O)CC[C@]3(C)C(=CC[C@@H]4[C@@]5(C)CC[C@H](O[C@@H]6OC[C@H](O)[C@H](O)[C@H]6O)C(C)(C)[C@@H]5CC[C@]43C)[C@H]12 | 8.9 | 37 | 31
3 | C[C@H]1[C@H](C)CC[C@]2(C(=O)O)CC[C@]3(C)C(=CC[C@@H]4[C@@]5(C)CC[C@H](O[C@@H]6OC[C@H](O)[C@@H](O)[C@H]6O)C(C)(C)[C@@H]5CC[C@]43C)[C@H]12 | 39 | 20 | 29
4 | C[C@H]1[C@H](C)CC[C@]2(C(=O)O)CC[C@]3(C)C(=CC[C@@H]4[C@@]5(C)CC[C@H](O[C@@H]6O[C@H](C)[C@H](O)[C@H](O)[C@H]6O)C(C)(C)[C@@H]5CC[C@]43C)[C@H]12 | 7 | 13.1 | 15
5 | C[C@H]1[C@H](C)CC[C@]2(CO[C@@H]3O[C@H](C)[C@H](O)[C@H](O)[C@H]3O)CC[C@]3(C)C(=CC[C@@H]4[C@@]5(C)CC[C@H](O[C@@H]6O[C@H](C)[C@H](O)[C@H](O)[C@H]6O)C(C)(C)[C@@H]5CC[C@]43C)[C@H]12 | 8.9 | 16 | 12
6 | C[C@H]1[C@H](C)CC[C@]2(C(=O)O)CC[C@]3(C)C(=CC[C@@H]4[C@@]5(C)CC[C@H](O[C@H]6O[C@H](C)[C@@H](O)[C@H](O)[C@@H]6O)C(C)(C)[C@@H]5CC[C@]43C)[C@H]12 | 65 | 77 | 61
7 | C[C@H]1[C@H](C)CC[C@]2(CO[C@H]3O[C@@H](C)[C@@H](O)[C@@H](O)[C@@H]3O)CC[C@]3(C)C(=CC[C@@H]4[C@@]5(C)CC[C@H](O[C@H]6O[C@@H](C)[C@@H](O)[C@@H](O)[C@@H]6O)C(C)(C)[C@@H]5CC[C@]43C)[C@H]12 | 104 | 62 | 48
8 | C[C@H]1[C@H](C)CC[C@]2(C(=O)O)CC[C@]3(C)C(=CC[C@@H]4[C@@]5(C)CC[C@H](O[C@H]6O[C@@H](C)[C@@H](O)[C@@H](O)[C@@H]6O)C(C)(C)[C@@H]5CC[C@]43C)[C@H]12 | 3.7 | 7.2 | 15
9 | C[C@H]1[C@H](C)CC[C@]2(C(=O)O)CC[C@]3(C)C(=CC[C@@H]4[C@@]5(C)CC[C@H](O[C@H]6OC[C@@H](O)[C@@H](O)[C@@H]6O)C(C)(C)[C@@H]5CC[C@]43C)[C@H]12 | 9 | 10 | 7.9
10 | C[C@H]1[C@H](C)CC[C@]2(C(=O)O)CC[C@]3(C)C(=CC[C@@H]4[C@@]5(C)CC[C@H](O[C@@H]6OC[C@@H](O)[C@H](O)[C@H]6O)C(C)(C)[C@@H]5CC[C@]43C)[C@H]12 | 7.4 | 9 | 7
11 | C[C@H]1[C@H](C)CC[C@]2(CO[C@@H]3O[C@@H](C)[C@H](O)[C@@H](O)[C@H]3O)CC[C@]3(C)C(=CC[C@@H]4[C@@]5(C)CC[C@H](O[C@@H]6O[C@@H](C)[C@H](O)[C@@H](O)[C@H]6O)C(C)(C)[C@@H]5CC[C@]43C)[C@H]12 | 4.5 | 14 | 11
12 | C[C@H]1[C@H](C)CC[C@]2(CO[C@H]3O[C@H](C)[C@@H](O)[C@H](O)[C@@H]3O)CC[C@]3(C)C(=CC[C@@H]4[C@@]5(C)CC[C@H](O[C@H]6O[C@H](C)[C@@H](O)[C@H](O)[C@@H]6O)C(C)(C)[C@@H]5CC[C@]43C)[C@H]12 | 104 | > 200 | 109
13 | C[C@H]1[C@H](C)CC[C@]2(C(=O)O)CC[C@]3(C)C(=CC[C@@H]4[C@@]5(C)CC[C@H](O[C@H]6OC[C@H](O)[C@@H](O)[C@@H]6O)C(C)(C)[C@@H]5CC[C@]43C)[C@H]12 | 35 | 30 | 36
14 | C[C@H]1[C@H](C)CC[C@]2(C(=O)O)CC[C@]3(C)C(=CC[C@@H]4[C@@]5(C)CC[C@H](O[C@@H]6O[C@@H](C)[C@H](O)[C@@H](O)[C@H]6O)C(C)(C)[C@@H]5CC[C@]43C)[C@H]12 | 14 | 8.5 | 11
15 | C[C@H]1[C@H](C)CC[C@]2(C(=O)O)CC[C@]3(C)C(=CC[C@@H]4[C@@]5(C)CC[C@H](O[C@@H]6OC[C@H](O)[C@H](O)[C@H]6O)C(C)(C)[C@@H]5CC[C@]43C)[C@H]12 | 3.5 | 5.9 | 3.8
16 | C[C@H]1[C@H](C)CC[C@]2(CO[C@@H]3OC[C@@H](O)[C@@H](O)[C@@H]3O)CC[C@]3(C)C(=CC[C@@H]4[C@@]5(C)CC[C@H](O[C@H]6OC[C@@H](O)[C@@H](O)[C@@H]6O)C(C)(C)[C@@H]5CC[C@]43C)[C@H]12 | 10 | 20 | 16
17 | C[C@H]1[C@H](C)CC[C@]2(C(=O)O)CC[C@]3(C)C(=CC[C@@H]4[C@@]5(C)CC[C@H](O[C@H]6OC[C@@H](O)[C@H](O)[C@@H]6O)C(C)(C)[C@@H]5CC[C@]43C)[C@H]12 | 9 | 4.6 | 6.4
18 | C[C@H]1[C@H](C)CC[C@]2(CO[C@H]3OC[C@@H](O)[C@H](O)[C@H]3O)CC[C@]3(C)C(=CC[C@@H]4[C@@]5(C)CC[C@H](O[C@@H]6OC[C@@H](O)[C@H](O)[C@H]6O)C(C)(C)[C@@H]5CC[C@]43C)[C@H]12 | 15 | 20 | 14.9
19 | C[C@H]1[C@H](C)CC[C@]2(CO[C@H]3OC[C@H](O)[C@@H](O)[C@H]3O)CC[C@]3(C)C(=CC[C@@H]4[C@@]5(C)CC[C@H](O[C@@H]6OC[C@H](O)[C@@H](O)[C@H]6O)C(C)(C)[C@@H]5CC[C@]43C)[C@H]12 | 15 | 60 | 57
20 | C[C@H]1[C@H](C)CC[C@]2(CO[C@@H]3OC[C@H](O)[C@@H](O)[C@@H]3O)CC[C@]3(C)C(=CC[C@@H]4[C@@]5(C)CC[C@H](O[C@H]6OC[C@H](O)[C@@H](O)[C@@H]6O)C(C)(C)[C@@H]5CC[C@]43C)[C@H]12 | 9.8 | > 200 | > 200
21 | C[C@H]1[C@H](C)CC[C@]2(CO[C@@H]3OC[C@@H](O)[C@H](O)[C@@H]3O)CC[C@]3(C)C(=CC[C@@H]4[C@@]5(C)CC[C@H](O[C@H]6OC[C@@H](O)[C@H](O)[C@@H]6O)C(C)(C)[C@@H]5CC[C@]43C)[C@H]12 | 34 | 10 | 38
22 | COc1cc([C@@H]2c3cc4c(cc3[C@@H](O[C@@H]3O[C@@H]5CO[C@@H](C)O[C@H]5[C@H](O)[C@H]3O)[C@H]3COC(=O)[C@H]23)OCO4)cc(OC)c1O [ETOPOSIDE] | 1.9 | > 50 | 5.1
23 | C[C@H]1[C@H](C)CC[C@]2(C(=O)O)CC[C@]3(C)C(=CC[C@@H]4[C@@]5(C)CC[C@H](O)C(C)(C)[C@@H]5CC[C@]43C)[C@H]12 [URSOLIC ACID] | 16 | 13.1 | 16
24 | C[C@H]1[C@H](C)CC[C@]2(CO)CC[C@]3(C)C(=CC[C@@H]4[C@@]5(C)CC[C@H](O)C(C)(C)[C@@H]5CC[C@]43C)[C@H]12 [UVAOL] | > 200 | > 200 | > 200
